From patent US7087035B2 (priority 1999, dated 2006)

Conditions: stretched and non-stretched groups; systems removed at 24 and 48 hours
Description: In one group of 12 hairless guinea pigs the skin of one flank was stretched manually bi-directionally ( ? and ? ) before application of a foam double adhesive ring having a thickness of 0.8 mm ( 1/32 inch) with a 2 cm^2 hole in the middle which would later contain the drug. The bi-directional stretching was estimated to achieve a skin tension of between 0.1 and 1 M Pa. The adhesive ring served to keep the skin under the drug compartment in the stretched configuration. Next, a 2 cm^2 stainless steel microprotrusion array having trapezoidal microprotrusions with microprotrusion lengths of 430 μm and a microprotrusion density of 241 microprotrusions/cm^2 was applied to the skin beneath the drug compartment using an approximately 2 kg/cm^2 normal manual pressure. The microprotrusion array was held for a few seconds and then removed.
A second group of 12 hairless guinea pigs were treated in the same way, except that the skin was not stretched. At 12, 24, and 48 hours after application four systems from each group were removed and residual drug was washed from the skin.

NCCCC[C@H](N[C@@H](CCc1ccccc1)C(=O)O)C(=O)N1CCC[C@H]1C(=O)O [lisinopril]
drug flux after 12 hours: no drug flux in either group
